The target of one data set is T1, δ opioid receptor (Rattus norvegicus, UniProt P33533).
T1 construct: tissue Pel-Freeze Biological Inc. (Rogers, Ark.); host or cells: rat whole brain
The experiment in a line: radioligand binding, δ opioid receptor, rat brain membranes. Conditions: cell marked (rat), tritium-labeled Deltorphin II.

Another data set deals with T2, μ opioid receptor (Rattus norvegicus, UniProt P33535).
T2 construct: tissue Pel-Freeze Biological Inc. (Rogers, Ark.); host or cells: rat whole brain
Put plainly: radioligand binding, μ opioid receptor, rat brain membranes. Conditions: cell marked (rat), tritium-labeled DAMGO.

In another data set the target is T3, κ opioid receptor (Cavia porcellus, UniProt P41144).
T3 construct: tissue Pel-Freeze Biological Inc. (Rogers, Ark.); host or cells: guinea pig cerebellum
The experiment in a line: radioligand binding, κ opioid receptor, guinea pig cerebellum. Conditions: tritium-labeled U69593.

The subject of another data set is mouse vas deferens. Put plainly: electrically stimulated mouse vas deferens (MVD) ED50. Format: cell-based. Conditions: ED50, inhibition of electrically induced contractions.
The test system of the next data set is guinea pig ileum. The experiment in a line: electrically stimulated guinea pig ileum (GPI) ED50. Type of data set: cell-based. Conditions: Cavia porcellus; ED50, inhibition of electrically induced contractions. The method, then:
Further the compounds of formula (1) were evaluated for in vitro opioid receptor activity in various receptor systems, including mouse vas deferens (Mouse Vas Deferens ED50), and guinea pig ileum (Guinea Pig Ileum ED50). The assay procedures used for such determinations of receptor activity are set out below.
Intact ileums (about 3 cm length) were removed from guinea pig and suspended with 1 g of tension in a bath chamber as described for the vasa deferentia. The ileums were stimulated with electrical square-wave pulses of 0.1-Hz, 1 msec pulse duration at supramaximal voltage.
The ED50 values were extrapolated from curves showing the dose concentration plotted against the response (J. A. H. Lord, A. A. Waterfield, J. Hughes, H. W. Kosterlitz, Nature 267, 495, (1977)).

Data set [1] deals with seizure-like convulsions in mice. The experiment in a line: mouse seizure-like convulsions. Type of data set: in vivo. An outline of the steps: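 Male CD-1 mice (Charles River, Raleigh, N.C.) of 20-25 g were dosed and watched for one hour to detect seizure-like convulsions mediated by central delta receptors. An event was counted when clonic or tonic/clonic muscle movements involved the whole body, usually followed by brief catalepsy, judged by no attempt to withdraw front paws from a bar 2-3 inches above the floor.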

The next data set addresses T4, human delta receptor (Homo sapiens, UniProt P41143).
T4 construct: purchased Perkin Elmer, Boston, Mass; 6110549; host or cells: HEK-293 cells
Put plainly: radioligand binding, human delta receptor, HEK-293 cell membranes. Conditions: cell not marked (rat), species not given, read-out: δ.

Another data set addresses T5, human mu opioid receptor (Homo sapiens, UniProt P35372).
T5 construct: purchased Perkin Elmer, Boston, Mass; 6110535; host or cells: CHO cells
The experiment in a line: radioligand binding, human mu opioid receptor, CHO cell membranes. Conditions: species not given, read-out: μ.

pEC50, pKi: −log10 of the molar value.

T2 sequence (P33535 whole entry): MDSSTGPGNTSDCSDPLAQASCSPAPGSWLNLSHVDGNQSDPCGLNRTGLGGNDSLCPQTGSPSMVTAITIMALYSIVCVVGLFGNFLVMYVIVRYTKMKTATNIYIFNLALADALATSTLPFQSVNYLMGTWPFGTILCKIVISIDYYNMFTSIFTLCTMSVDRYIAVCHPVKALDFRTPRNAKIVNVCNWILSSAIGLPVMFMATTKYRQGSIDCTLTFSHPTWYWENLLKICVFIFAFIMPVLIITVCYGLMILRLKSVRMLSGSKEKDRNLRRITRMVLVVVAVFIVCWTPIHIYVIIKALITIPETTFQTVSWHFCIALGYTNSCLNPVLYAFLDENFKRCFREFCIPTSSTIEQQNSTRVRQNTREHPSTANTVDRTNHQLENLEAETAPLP
T3 sequence (P41144 whole entry): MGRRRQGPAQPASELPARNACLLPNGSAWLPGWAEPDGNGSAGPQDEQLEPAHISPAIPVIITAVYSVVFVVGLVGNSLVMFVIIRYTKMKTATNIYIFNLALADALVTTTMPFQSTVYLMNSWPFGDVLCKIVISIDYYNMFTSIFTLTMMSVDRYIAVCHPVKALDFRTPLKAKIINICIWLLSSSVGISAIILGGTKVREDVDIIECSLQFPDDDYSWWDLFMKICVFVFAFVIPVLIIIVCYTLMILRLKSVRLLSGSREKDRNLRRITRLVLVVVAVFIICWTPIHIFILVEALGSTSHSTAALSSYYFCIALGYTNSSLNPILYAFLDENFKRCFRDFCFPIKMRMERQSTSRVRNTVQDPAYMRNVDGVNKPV
T1 sequence (P33533 whole entry): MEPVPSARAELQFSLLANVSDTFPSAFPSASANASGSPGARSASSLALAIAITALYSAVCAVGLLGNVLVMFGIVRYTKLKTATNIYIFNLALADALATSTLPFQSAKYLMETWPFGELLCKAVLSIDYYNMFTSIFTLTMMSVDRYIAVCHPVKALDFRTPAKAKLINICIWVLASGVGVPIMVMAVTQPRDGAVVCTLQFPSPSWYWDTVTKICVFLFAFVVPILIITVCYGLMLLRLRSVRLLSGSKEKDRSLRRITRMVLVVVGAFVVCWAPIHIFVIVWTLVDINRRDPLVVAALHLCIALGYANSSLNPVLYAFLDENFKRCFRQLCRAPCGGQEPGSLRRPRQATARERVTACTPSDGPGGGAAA
T4 sequence (P41143 whole entry): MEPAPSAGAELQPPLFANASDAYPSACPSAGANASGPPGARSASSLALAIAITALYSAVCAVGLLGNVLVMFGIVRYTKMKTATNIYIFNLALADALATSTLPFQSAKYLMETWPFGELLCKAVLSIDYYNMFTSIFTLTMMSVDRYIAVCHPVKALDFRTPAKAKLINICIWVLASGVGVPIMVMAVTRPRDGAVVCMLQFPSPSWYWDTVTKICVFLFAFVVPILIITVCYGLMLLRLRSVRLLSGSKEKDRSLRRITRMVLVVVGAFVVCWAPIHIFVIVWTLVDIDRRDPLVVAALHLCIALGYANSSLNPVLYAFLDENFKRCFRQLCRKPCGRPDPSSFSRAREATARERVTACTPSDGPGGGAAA
T5 sequence (P35372 whole entry): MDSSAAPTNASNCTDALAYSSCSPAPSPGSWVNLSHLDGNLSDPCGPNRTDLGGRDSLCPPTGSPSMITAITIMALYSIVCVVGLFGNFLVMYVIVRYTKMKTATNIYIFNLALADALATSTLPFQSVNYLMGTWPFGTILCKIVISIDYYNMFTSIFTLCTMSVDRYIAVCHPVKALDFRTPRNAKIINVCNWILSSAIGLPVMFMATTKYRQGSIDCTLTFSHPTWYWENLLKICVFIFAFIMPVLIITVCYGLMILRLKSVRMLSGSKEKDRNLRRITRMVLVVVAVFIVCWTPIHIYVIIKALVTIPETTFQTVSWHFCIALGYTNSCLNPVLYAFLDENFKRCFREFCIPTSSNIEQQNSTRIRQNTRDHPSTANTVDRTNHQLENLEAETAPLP

Broadly, the pEC50 is −log10 of the EC50, conventionally taken in molar units. The low end stands for a high EC50, the high end for a low EC50. Turning to `C=CCN1C[C@H](C)N(C(c2ccc(C(=O)N3CCCN(CCCC(=O)O)CC3)cc2)c2cccc(O)c2)C[C@H]1C` (some centres unmarked), the pKi on δ opioid receptor was 8.40; on μ opioid receptor it was 7.79; at κ opioid receptor, 7.53. The results for the pEC50 in the data set on mouse vas deferens and in the data set on guinea pig ileum were 9.02 and 6.36, respectively. For the same compound, the Seiz. in data set [1] (10 mg/kg IV) and in data set [1] (100 mg/kg SC) was 0% 10 mg/kg IV 0% 100 mg/kg SC each time.
Consider `C=CCN1C[C@H](C)N(C(c2cccc(O)c2)c2cccc(C(=O)N3CCCN(CC(=O)OCC)CC3)c2)C[C@H]1C` (some centres unmarked), for which the pKi at δ opioid receptor was 8.87; at μ opioid receptor, 8.48; at κ opioid receptor, 8.38. In addition, in the data set on mouse vas deferens, the pEC50 was 8.87. The same compound returned a Seiz. in data set [1] (10 mg/kg IV) of 25% 10 mg/kg IV.
Consider `CCOC(=O)CN1CCN(C(=O)c2cccc([C@H](c3cccc(O)c3)N3C[C@@H](C)N(Cc4ccccc4)C[C@@H]3C)c2)CC1` [Example 68, (4-{3-[(R)-((2S,5R)-4-Benzyl-2,5-dimethyl-piperazin-1-yl)-(3-hydroxy-phenyl)-methyl]-benzoyl}-piperazin-1-yl)-acetic acid ethyl ester], for which the results for the pKi at human delta receptor and on human mu opioid receptor were 9.14 and 8.91, respectively. In addition, the pEC50 in the data set on mouse vas deferens is 8.72; with guinea pig ileum, 6.28. Moreover, the Seiz. in data set [1] (10 mg/kg IV) is given as 80% 10 mg/kg IV.
With `C=CCN1C[C@H](C)N([C@@H](c2cccc(O)c2)c2cccc(C(=O)N3CCC(C(=O)OCC)CC3)c2)C[C@H]1C` [Example 119, 1-{3-[(R)-((2S,5R)-4-Allyl-2,5-dimethylpiperazin-1-yl)-(3-hydroxy-phenyl)methyl]benzoyl}piperidine-4-carboxylic acid ethyl ester], the results for the pKi on human delta receptor and on human mu opioid receptor were 8.53 and 9.27, respectively. Besides, the pEC50 in the data set on mouse vas deferens was 8.71; with guinea pig ileum, 7.06. The same compound had a Seiz. in data set [1] (10 mg/kg IV) of 80% 10 mg/kg IV.
On the same counts, the results for `CCOC(=O)CN1CCCN(C(=O)c2cccc(C(c3cccc(O)c3)N3C[C@@H](C)N(Cc4cccc(F)c4)C[C@@H]3C)c2)CC1` (some centres unmarked) are 8.27, 8.59, 7.87, 6.12 and 20% 10 mg/kg IV.
On the same counts, the results for `CCOC(=O)C1CCN(C(=O)c2cccc([C@H](c3cccc(O)c3)N3C[C@@H](C)N(Cc4cccc(F)c4)C[C@@H]3C)c2)CC1` [Example 124, 1-{3-[(R)-[(2S,5R)-4-(3-Fluoro-benzyl)-2,5-dimethyl-piperazin-1-yl]-(3-hydroxy-phenyl)-methyl]-benzoyl}-piperidine-4-carboxylic acid ethyl ester] are 7.54, 8.46, 8.60, 5.78 and 10% 10 mg/kg IV.
As to `C[C@@H]1CN([C@@H](c2cccc(O)c2)c2cccc(C(=O)N3CCCN(CCC(=O)O)CC3)c2)[C@@H](C)CN1CC1CC1`, the figures for the pKi on human delta receptor and at human mu opioid receptor were 7.16 and 7.65, respectively. Moreover, the pEC50 is 7.18 in the data set on mouse vas deferens and 6.18 with guinea pig ileum. In addition, in data set [1] (20 mg/kg IV), the Seiz. came to 0% 20 mg/kg IV.
Take `CCOC(=O)CCN1CCCN(C(=O)c2cccc([C@H](c3cccc(O)c3)N3C[C@@H](C)N(Cc4cccc(F)c4)C[C@@H]3C)c2)CC1`: the values for the pKi on human delta receptor and on human mu opioid receptor were 7.15 and 8.32, respectively. Moreover, the pEC50 in the data set on mouse vas deferens is 7.77; in the data set on guinea pig ileum, 6.01. Moreover, the Seiz. in data set [1] (10 mg/kg IV) came to 20% 10 mg/kg IV.
Take `C[C@@H]1CN([C@@H](c2cccc(O)c2)c2cccc(C(=O)N3CCN(CCCC(=O)O)CC3)c2)[C@@H](C)CN1Cc1ccccc1` [Example 80, 4-(4-{3-[(R)-((2S,5R)-4-Benzyl-2,5-dimethyl-piperazin-1-yl)-(3-hydroxy-phenyl)-methyl]-benzoyl}-piperazin-1-yl)-butyric acid]: the pKi on human delta receptor was 8.24; at human mu opioid receptor it was 8.28. The figures for the pEC50 in the data set on mouse vas deferens and in the data set on guinea pig ileum were 9.47 and 6.98, respectively. Moreover, the Seiz. in data set [1] (10 mg/kg IV) was found to be 0% 10 mg/kg IV.
The matching figures for `C[C@@H]1CN(C(c2cccc(O)c2)c2cccc(C(=O)N3CCCN(CCCC(=O)O)CC3)c2)[C@@H](C)CN1Cc1ccccc1` (some centres unmarked): 7.83, 8.72, 8.97, 6.80 and 0% 10 mg/kg IV.
The matching figures for `C=CCN1C[C@H](C)N([C@@H](c2cccc(O)c2)c2cccc(C(=O)N3CCN(CCCC(=O)O)CC3)c2)C[C@H]1C` [Example 75]: 7.60, 7.97, 8.39, 6.75 and 0% 10 mg/kg IV.
The matching figures for `CCOC(=O)CN1CCCN(C(=O)c2cccc(C(c3cccc(O)c3)N3C[C@@H](C)N(Cc4ccccc4)C[C@@H]3C)c2)CC1` (some centres unmarked): 9.68, 9.25, 8.62, 6.28 and 60% 10 mg/kg IV.
As to `C=CCN1C[C@H](C)N(C(c2cccc(O)c2)c2cccc(C(=O)N3CCCNCC3)c2)C[C@H]1C` (some centres unmarked), the pKi on δ opioid receptor was 8.33; on μ opioid receptor, 8.79; at κ opioid receptor, 8.80. Further, the pEC50 with mouse vas deferens was 8.22. For the same compound, in data set [1] (10 mg/kg IV), the Seiz. amounted to 45% 10 mg/kg IV.
For the compound `CCOC(=O)C1CCN(C(=O)c2cccc([C@H](c3cccc(O)c3)N3C[C@@H](C)N(CC4CC4)C[C@@H]3C)c2)CC1` [Example 126, 1-{3-[(R)-((1S,4R)-4-Cyclopropylmethyl-2,5-dimethyl-piperazin-1-yl)-(3-hydroxy-phenyl)-methyl]-benzoyl}-piperidine-4-carboxylic acid ethyl ester], the pKi at human delta receptor was 8.43; at human mu opioid receptor, 8.82. For the same compound, the negative logarithm of the EC50 (pEC50) with mouse vas deferens is 8.06; in the data set on guinea pig ileum, 5.48. Besides, the Seiz. in data set [1] (10 mg/kg IV) stood at 10% 10 mg/kg IV.
Consider `C=CCN1C[C@H](C)N(C(c2cccc(O)c2)c2cccc(C(=O)N3CCCN(CC(=O)O)CC3)c2)C[C@H]1C` (some centres unmarked), for which the pKi is 8.45 on δ opioid receptor, 8.52 on μ opioid receptor and 7.90 at κ opioid receptor. The compound further gave a pEC50 in the data set on mouse vas deferens of 8.33. Moreover, the Seiz. in data set [1] (3 mg/kg IV) stood at 0%; in data set [1] (10 mg/kg IV) it was 10%.
`C=CCN1C[C@H](C)N([C@@H](c2cccc(O)c2)c2cccc(C(=O)N3CCCN(CCCCC(=O)O)CC3)c2)C[C@H]1C`: the values for the pKi at δ opioid receptor, on μ opioid receptor and at κ opioid receptor were 8.19, 8.05 and 7.56, respectively. The same compound showed a pEC50 in the data set with mouse vas deferens of 8.48. In addition, the Seiz. in data set [1] (10 mg/kg IV) and in data set [1] (100 mg/kg SC) was 0% 10 mg/kg IV 0% 100 mg/kg SC throughout.
For `CCOC(=O)C1CCN(C(=O)c2cccc([C@H](c3cccc(O)c3)N3C[C@@H](C)N(Cc4ccccc4)C[C@@H]3C)c2)CC1` [Example 122, 1-{3-[(R)-((2S,5R)-4-Benzyl-2,5-dimethyl-piperazin-1-yl)-(3-hydroxy-phenyl)-methyl]-benzoyl}-piperidine-4-carboxylic acid ethyl ester], the pKi on human delta receptor is 8.35; at human mu opioid receptor, 8.72. The pEC50 was 9.09 in the data set on mouse vas deferens and 6.82 in the data set on guinea pig ileum. This compound yielded a Seiz. in data set [1] (10 mg/kg IV) of 70% 10 mg/kg IV.
